Data from US10093630B2, “Pyrazole compounds and methods of making and using same” (ABIDE THERAPEUTICS, INC., priority 2014, dated 2018).
Read-outs that look alike come from different tables or passages of the source.

Experiments:
Test in all cases: In vitro competitive activity-based protein profiling (gel-based, FP-Rh or HT-01 probe)
Type in all cases: biochemical
[1] = molecular target: T1, ABHD6 (Mus musculus, UniProt Q8R2Y0); conditions: for inhibition at 1 µM: 1 μM inhibitor, read-out: % Inhibition at 1 μM, C = ABHD6; for IC50: mouse brain membrane fraction or cell lysates, 30 min preincubation at 37° C., read-out: Mouse (IC50 value, nM) ABHD6; for inhibition at 10 µM: 10 μM inhibitor, read-out: % Inhibition at 10 μM, C = ABHD6
T1 construct: Proteomes (mouse brain membrane fraction or cell lysates); from tissue; host or cells: mouse brain membrane fraction (or cell lysates, not specified)
T1 sequence (Q8R2Y0 1-336): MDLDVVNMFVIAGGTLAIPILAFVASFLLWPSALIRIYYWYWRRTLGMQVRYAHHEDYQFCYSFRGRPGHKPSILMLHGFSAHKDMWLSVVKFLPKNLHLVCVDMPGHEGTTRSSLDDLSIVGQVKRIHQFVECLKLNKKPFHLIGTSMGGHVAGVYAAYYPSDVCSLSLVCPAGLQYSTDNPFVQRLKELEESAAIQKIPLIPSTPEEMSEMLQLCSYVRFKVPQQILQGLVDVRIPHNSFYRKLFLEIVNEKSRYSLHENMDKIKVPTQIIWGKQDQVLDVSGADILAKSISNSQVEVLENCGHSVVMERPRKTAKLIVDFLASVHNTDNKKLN
Summary of the method: (§1)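 Mouse brain membrane proteome or cell lysate (1.0 mg/mL protein) was preincubated with inhibitor at varying concentrations for 30 min at 37° C, then labelled with FP-Rh or HT-01 for 30 min at 37° C. After SDS-PAGE, residual hydrolase activity was quantified as in-gel fluorescence of each band.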

[2] = molecular target: T2, FAAH (Mus musculus, UniProt O08914); conditions: for inhibition at 1 µM: 1 μM inhibitor, read-out: % Inhibition at 1 μM, B = FAAH; for IC50: mouse brain membrane fraction or cell lysates, 30 min preincubation at 37° C., read-out: Mouse (IC50 value, nM) FAAH; for inhibition at 10 µM: 10 μM inhibitor, read-out: % Inhibition at 10 μM, B = FAAH
T2 construct: Proteomes (mouse brain membrane fraction or cell lysates); from tissue; host or cells: mouse brain membrane fraction (or cell lysates, not specified)
T2 sequence (O08914 1-579): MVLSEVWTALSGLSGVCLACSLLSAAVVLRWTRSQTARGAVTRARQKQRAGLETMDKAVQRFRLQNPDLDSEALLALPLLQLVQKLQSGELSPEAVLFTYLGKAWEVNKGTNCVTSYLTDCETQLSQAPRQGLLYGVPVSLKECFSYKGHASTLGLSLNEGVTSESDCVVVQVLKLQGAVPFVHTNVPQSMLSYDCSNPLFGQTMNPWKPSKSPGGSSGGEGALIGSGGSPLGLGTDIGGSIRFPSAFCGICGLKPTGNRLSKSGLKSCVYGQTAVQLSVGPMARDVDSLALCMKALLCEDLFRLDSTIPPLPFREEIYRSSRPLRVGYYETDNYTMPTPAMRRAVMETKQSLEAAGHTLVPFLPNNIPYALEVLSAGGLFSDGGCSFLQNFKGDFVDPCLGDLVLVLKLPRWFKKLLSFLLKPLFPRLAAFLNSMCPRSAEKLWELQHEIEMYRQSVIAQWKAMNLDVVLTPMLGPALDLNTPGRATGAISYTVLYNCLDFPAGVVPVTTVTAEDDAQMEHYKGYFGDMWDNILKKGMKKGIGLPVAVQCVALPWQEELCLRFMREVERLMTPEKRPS
Summary of the method: as §1

[3] = molecular target: T3, MAGL (Mus musculus, UniProt O35678); conditions: for inhibition at 1 µM: 1 μM inhibitor; for IC50: mouse brain membrane fraction or cell lysates, 30 min preincubation at 37° C., read-out: Mouse (IC50 value, nM) MAGL; for inhibition at 10 µM: 10 μM inhibitor
T3 construct: Proteomes (mouse brain membrane fraction or cell lysates); from tissue; host or cells: mouse brain membrane fraction (or cell lysates, not specified)
T3 sequence (O35678 1-303): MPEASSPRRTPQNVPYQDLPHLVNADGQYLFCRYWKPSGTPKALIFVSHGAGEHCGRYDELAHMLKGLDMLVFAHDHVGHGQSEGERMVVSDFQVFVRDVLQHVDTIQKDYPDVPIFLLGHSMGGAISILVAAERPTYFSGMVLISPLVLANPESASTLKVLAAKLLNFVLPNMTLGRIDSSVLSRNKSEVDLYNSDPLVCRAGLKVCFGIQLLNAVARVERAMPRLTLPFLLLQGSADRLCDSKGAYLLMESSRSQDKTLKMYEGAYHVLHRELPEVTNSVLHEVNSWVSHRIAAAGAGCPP
Summary of the method: as §1

[4] = molecular target: T4, PLA2G7 (Mus musculus, UniProt Q60963); conditions: for inhibition at 1 µM: 1 μM inhibitor, read-out: % Inhibition at 1 μM, D = PLA2G7; for IC50: mouse brain membrane fraction or cell lysates, 30 min preincubation at 37° C.; for inhibition at 10 µM: 10 μM inhibitor, read-out: % Inhibition at 10 μM, D = PLA2G7
T4 construct: Proteomes (mouse brain membrane fraction or cell lysates); from tissue; host or cells: mouse brain membrane fraction (or cell lysates, not specified)
T4 sequence (Q60963 22-440): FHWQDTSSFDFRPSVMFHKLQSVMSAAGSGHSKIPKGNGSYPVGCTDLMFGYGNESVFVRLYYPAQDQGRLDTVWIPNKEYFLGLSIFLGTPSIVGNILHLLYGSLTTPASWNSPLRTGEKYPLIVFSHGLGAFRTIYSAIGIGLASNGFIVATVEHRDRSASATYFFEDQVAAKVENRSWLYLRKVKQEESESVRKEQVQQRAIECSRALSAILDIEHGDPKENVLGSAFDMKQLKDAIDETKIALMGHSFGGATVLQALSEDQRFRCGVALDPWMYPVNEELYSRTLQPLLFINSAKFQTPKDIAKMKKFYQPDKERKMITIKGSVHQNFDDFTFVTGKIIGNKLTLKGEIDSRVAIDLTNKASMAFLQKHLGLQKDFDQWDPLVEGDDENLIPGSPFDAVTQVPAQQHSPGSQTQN
Summary of the method: as §1

| Compound | inhibition at 1 µM ([1]; gel-based competitive ABPP) [%] | IC50 [1] [nM] | inhibition at 1 µM ([2]; gel-based competitive ABPP) [%] | IC50 [2] [nM] | inhibition at 1 µM ([3]; gel-based competitive ABPP) [%] | IC50 [3] [nM] | inhibition at 1 µM ([4]; gel-based competitive ABPP) [%] | IC50 [4] [nM] | inhibition at 1 µM [1] [%] | inhibition at 10 µM [1] [%] | inhibition at 1 µM [2] [%] | inhibition at 10 µM [2] [%] | inhibition at 1 µM [3] [%] | inhibition at 10 µM [3] [%] | inhibition at 1 µM [4] [%] | inhibition at 10 µM [4] [%] |
| --- | --- | --- | --- | --- | --- | --- | --- | --- | --- | --- | --- | --- | --- | --- | --- | --- |
| O=C(N1CCN(Cc2ccccc2N2CCCC2)CC1)n1cc(C(F)(F)F)cn1 [Example 280, (4-(2-(Pyrrolidin-1-yl)benzyl)piperazin-1-yl)(4-(trifluoromethyl)-1H-pyrazol-1-yl)methanone] | > 75 | 100 to 1000 | > 75 | 100 to 1000 | > 75 | < 100 | > 75 | < 100 | – | – | – | – | – | – | – | – |
| O=C(c1cnn(C(=O)N2CCN(Cc3ccc4c(c3)OCO4)CC2)c1)N1CCCC1 [Example 78, (4-(Benzo[d][1,3]dioxol-5-ylmethyl)piperazin-1-yl)(4-(pyrrolidine-1-carbonyl)-1H-pyrazol-1-yl)methanone] | – | – | – | – | – | – | – | – | > 75 | > 75 | > 75 | > 75 | < 25 | > 75 | < 25 | > 75 |
| O=C(c1cnn(C(=O)N2CCN(Cc3ccccn3)CC2)c1)N1CCCCC1 [Example 72, Piperidin-1-yl(1-(4-(pyridin-2-ylmethyl)piperazine-1-carbonyl)-1H-pyrazol-4-yl)methanone] | – | – | – | – | – | – | – | – | < 25 | > 75 | < 25 | > 75 | < 25 | < 25 | > 75 | > 75 |
| Cc1cnn(C(=O)N2CCN(C(=O)c3ccccc3)CC2)c1 [Example 164, (4-Benzoylpiperazin-1-yl)(4-methyl-1H-pyrazol-1-yl)methanone] | – | – | – | – | – | – | – | – | < 25 | < 25 | < 25 | < 25 | < 25 | 25 to 75 | < 25 | > 75 |
| O=C(N1CCCC1)n1cc(-c2ccccc2)cn1 [Example 103, (4-Phenyl-1H-pyrazol-1-yl)(pyrrolidin-1-yl)methanone] | – | – | – | – | – | – | – | – | – | < 25 | – | > 75 | – | < 25 | – | > 75 |
| CS(=O)(=O)N1CCCN(C(=O)n2cc(C(F)(F)F)cn2)CC1 [Example 155, (4-(Methylsulfonyl)-1,4-diazepan-1-yl)(4-(trifluoromethyl)-1H-pyrazol-1-yl)methanone] | – | – | – | – | – | – | – | – | < 25 | > 75 | 25 to 75 | > 75 | < 25 | 25 to 75 | > 75 | > 75 |
| O=C(N1CCN(Cc2c(N3CCCC3)cccc2C(F)(F)F)CC1)n1cc(C(F)(F)F)cn1 [Example 110, (4-(2-(Pyrrolidin-1-yl)-6-(trifluoromethyl)benzyl)piperazin-1-yl)(4-(trifluoromethyl)-1H-pyrazol-1-yl)methanone] | – | < 100 | – | > 1000 | – | < 100 | – | – | > 75 | > 75 | < 25 | > 75 | > 75 | > 75 | > 75 | > 75 |
| CN(CCN(C)C(=O)n1cc(C#N)cn1)C(=O)c1ccccc1 [Example 182, 4-Cyano-N-methyl-N-(2-(N-methylbenzamido)ethyl)-1H-pyrazole-1-carboxamide] | – | – | – | – | – | – | – | – | < 25 | > 75 | > 75 | > 75 | < 25 | > 75 | < 25 | > 75 |

Continued, values first:

| inhibition at 1 µM ([1]; gel-based competitive ABPP) [%] | IC50 [1] [nM] | inhibition at 1 µM ([2]; gel-based competitive ABPP) [%] | IC50 [2] [nM] | inhibition at 1 µM ([3]; gel-based competitive ABPP) [%] | IC50 [3] [nM] | inhibition at 1 µM ([4]; gel-based competitive ABPP) [%] | IC50 [4] [nM] | inhibition at 1 µM [1] [%] | inhibition at 10 µM [1] [%] | inhibition at 1 µM [2] [%] | inhibition at 10 µM [2] [%] | inhibition at 1 µM [3] [%] | inhibition at 10 µM [3] [%] | inhibition at 1 µM [4] [%] | inhibition at 10 µM [4] [%] | Compound |
| --- | --- | --- | --- | --- | --- | --- | --- | --- | --- | --- | --- | --- | --- | --- | --- | --- |
| > 75 | < 100 | > 75 | < 100 | > 75 | < 100 | > 75 | 100 to 1000 | – | – | – | – | – | – | – | – | O=C(N1CCN(Cc2cccc(Cl)c2)CC1)n1cc(C(F)(F)F)cn1 [Example 268, (4-(3-Chlorobenzyl)piperazin-1-yl)(4-(trifluoromethyl)-1H-pyrazol-1-yl)methanone] |
| – | – | – | – | – | – | – | – | 25 to 75 | > 75 | < 25 | 25 to 75 | < 25 | < 25 | > 75 | > 75 | O=C(c1cnn(C(=O)N2CCN(Cc3ccncc3)CC2)c1)N1CCCCC1 [Example 70, Piperidin-1-yl(1-(4-(pyridin-4-ylmethyl)piperazine-1-carbonyl)-1H-pyrazol-4-yl)methanone] |
| – | – | – | – | – | – | – | – | > 75 | > 75 | > 75 | > 75 | < 25 | 25 to 75 | < 25 | < 25 | CS(=O)(=O)N1CCCN(C(=O)n2cc(Cl)cn2)CC1 [Example 189, (4-Chloro-1H-pyrazol-1-yl)(4-(methylsulfonyl)-1,4-diazepan-1-yl)methanone] |
| – | – | – | – | – | – | – | – | > 75 | > 75 | > 75 | > 75 | > 75 | > 75 | > 75 | > 75 | Cc1cc(N2CCN(C(=O)n3cc(Cl)cn3)CC2)c2ccccc2n1 [Example 208, (4-Chloro-1H-pyrazol-1-yl)(4-(2-methylquinolin-4-yl)piperazin-1-yl)methanone] |
| < 25 | – | > 75 | – | > 75 | – | < 25 | – | – | – | – | – | – | – | – | – | N#Cc1cnn(C(=O)N2CCCN(Cc3ccc(OCc4ccccc4)cc3)CC2)c1 [Example 303, 1-(4-(4-(Benzyloxy)benzyl)-1,4-diazepane-1-carbonyl)-1H-pyrazole-4-carbonitrile] |
| – | – | – | – | – | – | – | – | > 75 | > 75 | > 75 | > 75 | > 75 | > 75 | > 75 | > 75 | O=C(N1CCN(c2cccc(Cl)c2)CC1)n1cc(C(F)(F)F)cn1 [Example 228, (4-(3-Chlorophenyl)piperazin-1-yl)(4-(trifluoromethyl)-1H-pyrazol-1-yl)methanone] |
